In US6573293B2, “Pyrrole substituted 2-indolinone protein kinase inhibitors” (Sugen, Inc., priority 2000, dated 2003):

How the values were obtained:
PDGFR-β = biological target: T1, PDGFR-β (Homo sapiens, UniProt P09619); experiment: PDGFR bioassay (bio PDGF); format: biochemical
T1 construct: host or cells: NIH 3T3

HER-2 kinase = biological target: T2, HER-2 kinase (Homo sapiens, UniProt P04626); experiment: Cellular HER-2 kinase assay; format: cell-based; details: read-out: Her2 Kinase IC50
T2 construct: Use EGFr/HER-2 chimera/3T3-C7 cell line for this assay; It is expressed in mouse NIH 3T3 clone C7 cells; P00533 (Epidermal growth factor receptor)
T2 sequence (P04626 720-987 limits assumed): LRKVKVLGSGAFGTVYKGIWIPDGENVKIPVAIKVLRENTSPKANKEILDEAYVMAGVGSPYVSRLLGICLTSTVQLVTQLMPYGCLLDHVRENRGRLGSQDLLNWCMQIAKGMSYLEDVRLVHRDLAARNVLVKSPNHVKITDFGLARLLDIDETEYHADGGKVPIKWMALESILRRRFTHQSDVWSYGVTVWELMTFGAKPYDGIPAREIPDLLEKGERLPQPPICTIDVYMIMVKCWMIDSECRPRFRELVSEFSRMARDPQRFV

GST-Flk1 = biological target: T3, GST-Flk1 (Mus musculus, UniProt P35918); experiment: GST-FLK-1 bioassay (bio flkGST); format: biochemical
T3 construct: GST-Flk1cd purified from sf9 recombinant baculovirus transformation; host or cells: Sf9 (baculovirus)
T3 sequence (P35918 784-1345 limits assumed): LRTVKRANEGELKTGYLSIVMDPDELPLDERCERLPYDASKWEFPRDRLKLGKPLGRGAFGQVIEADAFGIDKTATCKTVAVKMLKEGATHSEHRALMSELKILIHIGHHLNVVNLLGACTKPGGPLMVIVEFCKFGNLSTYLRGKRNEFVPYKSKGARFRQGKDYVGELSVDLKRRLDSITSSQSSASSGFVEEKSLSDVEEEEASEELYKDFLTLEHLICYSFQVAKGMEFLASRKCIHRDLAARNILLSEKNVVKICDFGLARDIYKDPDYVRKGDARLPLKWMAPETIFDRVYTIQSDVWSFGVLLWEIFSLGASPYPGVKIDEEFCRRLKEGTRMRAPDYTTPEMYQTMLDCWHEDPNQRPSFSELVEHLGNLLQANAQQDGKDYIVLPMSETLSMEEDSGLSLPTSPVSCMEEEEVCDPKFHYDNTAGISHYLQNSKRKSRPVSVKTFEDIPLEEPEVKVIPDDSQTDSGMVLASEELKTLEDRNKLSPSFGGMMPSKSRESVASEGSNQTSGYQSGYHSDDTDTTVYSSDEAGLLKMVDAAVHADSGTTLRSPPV

EGFR [1] = biological target: T4, EGFR (Homo sapiens, UniProt P00533); experiment: EGFR bioassay (bio EGF); format: biochemical
T4 construct: A431 cell lysate (SUGEN, Inc.); host or cells: A431
T4 sequence (P00533 25-1210): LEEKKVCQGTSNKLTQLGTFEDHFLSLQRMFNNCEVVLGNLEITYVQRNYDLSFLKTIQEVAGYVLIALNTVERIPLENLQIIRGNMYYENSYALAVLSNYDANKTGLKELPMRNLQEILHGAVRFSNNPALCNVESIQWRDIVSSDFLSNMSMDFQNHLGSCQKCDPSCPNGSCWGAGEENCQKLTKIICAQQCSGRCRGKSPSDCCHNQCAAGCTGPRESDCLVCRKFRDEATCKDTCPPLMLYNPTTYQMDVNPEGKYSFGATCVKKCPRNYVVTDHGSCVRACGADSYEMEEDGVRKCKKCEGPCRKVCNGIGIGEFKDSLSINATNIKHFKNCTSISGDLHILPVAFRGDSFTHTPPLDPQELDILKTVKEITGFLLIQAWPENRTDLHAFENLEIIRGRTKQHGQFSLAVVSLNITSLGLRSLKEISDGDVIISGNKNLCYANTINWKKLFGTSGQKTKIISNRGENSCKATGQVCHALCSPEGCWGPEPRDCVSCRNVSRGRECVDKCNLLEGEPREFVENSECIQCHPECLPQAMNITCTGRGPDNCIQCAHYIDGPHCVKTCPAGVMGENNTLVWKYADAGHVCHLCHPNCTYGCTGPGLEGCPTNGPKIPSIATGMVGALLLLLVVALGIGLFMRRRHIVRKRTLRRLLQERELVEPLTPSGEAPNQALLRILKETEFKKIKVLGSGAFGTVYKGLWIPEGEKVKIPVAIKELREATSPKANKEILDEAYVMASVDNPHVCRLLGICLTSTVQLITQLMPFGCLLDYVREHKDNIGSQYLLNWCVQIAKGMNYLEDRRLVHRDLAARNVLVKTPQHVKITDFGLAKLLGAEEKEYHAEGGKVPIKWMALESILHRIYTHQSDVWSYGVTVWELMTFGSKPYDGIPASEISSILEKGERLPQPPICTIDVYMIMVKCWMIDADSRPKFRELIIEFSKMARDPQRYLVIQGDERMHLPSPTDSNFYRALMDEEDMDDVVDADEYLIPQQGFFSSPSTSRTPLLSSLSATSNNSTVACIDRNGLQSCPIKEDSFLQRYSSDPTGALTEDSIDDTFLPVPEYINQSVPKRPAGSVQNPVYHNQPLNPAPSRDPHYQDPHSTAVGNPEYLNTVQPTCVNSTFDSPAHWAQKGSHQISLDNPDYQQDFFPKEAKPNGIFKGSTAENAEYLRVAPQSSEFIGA

EGFR [2] = biological target: T4, EGFR; experiment: cell EGF assay; format: cell-based
Method: Several of the assays described herein are performed in an ELISA (Enzyme-Linked Immunosorbent Sandwich Assay) format (Voller, et al., 1980, “Enzyme-Linked Immunosorbent Assay,” Manual of Clinical Immunology, 2d ed., Rose and Friedman, Am. Soc. Of Microbiology, Washington, D.C., pp. 359-371). The general procedure is as follows: a compound is introduced to cells expressing the test kinase, either naturally or recombinantly, for a selected period of time after which, if the test kinase is a receptor, a ligand known to activate the receptor is added. The cells are lysed and the lysate is transferred to the wells of an ELISA plate previously coated with a specific antibody recognizing the substrate of the enzymatic phosphorylation reaction. Non-substrate components of the cell lysate are washed away and the amount of phosphorylation on the substrate is detected with an antibody specifically recognizing phosphotyrosine compared with control cells that were not contacted with a test compound.

T1 sequence (P09619 33-1106): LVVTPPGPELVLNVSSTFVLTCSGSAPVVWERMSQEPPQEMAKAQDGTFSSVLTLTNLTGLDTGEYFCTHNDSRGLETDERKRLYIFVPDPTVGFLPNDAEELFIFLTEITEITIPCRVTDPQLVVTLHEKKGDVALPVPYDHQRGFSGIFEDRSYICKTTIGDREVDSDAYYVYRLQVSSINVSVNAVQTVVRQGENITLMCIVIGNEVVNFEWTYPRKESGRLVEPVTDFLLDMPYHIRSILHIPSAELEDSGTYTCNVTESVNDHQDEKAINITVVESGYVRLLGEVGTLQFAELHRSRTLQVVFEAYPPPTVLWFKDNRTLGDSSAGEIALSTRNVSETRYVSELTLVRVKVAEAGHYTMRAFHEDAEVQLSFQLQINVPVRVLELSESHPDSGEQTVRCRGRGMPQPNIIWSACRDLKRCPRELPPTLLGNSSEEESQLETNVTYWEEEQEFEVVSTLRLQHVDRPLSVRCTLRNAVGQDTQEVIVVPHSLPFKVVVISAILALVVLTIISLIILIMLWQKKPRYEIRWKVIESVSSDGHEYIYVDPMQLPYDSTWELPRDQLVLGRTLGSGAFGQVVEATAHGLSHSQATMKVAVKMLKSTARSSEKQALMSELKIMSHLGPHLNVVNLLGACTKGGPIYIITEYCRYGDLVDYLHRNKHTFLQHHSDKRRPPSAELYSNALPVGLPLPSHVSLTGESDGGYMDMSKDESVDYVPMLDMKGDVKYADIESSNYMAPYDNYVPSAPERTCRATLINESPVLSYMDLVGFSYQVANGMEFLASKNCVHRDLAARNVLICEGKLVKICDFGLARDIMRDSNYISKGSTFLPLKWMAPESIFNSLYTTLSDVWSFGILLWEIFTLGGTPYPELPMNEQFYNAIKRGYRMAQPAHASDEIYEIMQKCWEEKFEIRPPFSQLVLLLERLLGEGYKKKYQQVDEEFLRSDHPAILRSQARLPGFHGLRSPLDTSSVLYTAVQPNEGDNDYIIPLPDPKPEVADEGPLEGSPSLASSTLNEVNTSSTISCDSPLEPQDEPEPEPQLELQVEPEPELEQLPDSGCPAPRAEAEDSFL

SMILES | IC50 (PDGFR-β) [µM] | IC50 (HER-2 kinase) [µM] | IC50 (GST-Flk1) [nM] | IC50 (EGFR [1]) [µM] | IC50 (EGFR [2]) [µM]
Cc1[nH]c(/C=C2\C(=O)Nc3ccc(-c4ccccc4)cc32)c(C)c1C(=O)NCCN1CCCC1 [Example 57, 2,4-Dimethyl-5-(2-oxo-5-phenyl-1,2-dihydroindol-3-ylidenemethyl)-1H-pyrrole-3-carboxylic acid (2-pyrrolidin-1-yl-ethyl)amide] | 7.98 | 6.94 | 60 | > 100 | 9.97
COc1ccccc1-c1ccc2c(c1)NC(=O)/C2=C\c1[nH]c(C)c(C(=O)NCCN2CCCC2)c1-c1ccccc1 [Example 43, 5-[6-(2-Methoxy-phenyl)-2-oxo-1,2-dihydroindol-3-ylidenemethyl]-2-methyl-4-phenyl-1H-pyrrole-3-carboxylic acid (2-pyrrolidin-1-yl-ethyl)amide] | 8.38 | 53.4 | 1120 | – | 37.3
CCN(CC)CCCNC(=O)c1c(C(C)C)[nH]c(/C=C2\C(=O)Nc3ccc(Br)cc32)c1C(C)C [Example 72, 5-(5-Bromo-2-oxo-1,2-dihydroindol-3-ylidenemethyl)-2,4-diisopropyl-1H-pyrrole-3-carboxylic acid (3-diethylaminopropyl)amide] | 10.5 | 9.65 | 6060 | > 100 | 39.9
CCN(CC)CCNC(=O)c1ccc(/C=C2\C(=O)Nc3ccc(Br)cc32)[nH]1 [Example 8, 5-(5-Bromo-2-oxo-1,2-dihydroindol-3-ylidenemethyl)-1H-pyrrole-2-carboxylic acid (2-diethylaminoethyl)amide] | > 100 | 5.5 | 12100 | 51.3 | 20.1
CCN(CC)CCNC(=O)c1c(C(C)C)[nH]c(/C=C2\C(=O)Nc3ccc(Br)cc32)c1-c1ccccc1 [Example 39, 5-(5-Bromo-2-oxo-1,2-dihydroindol-3-ylidenemethyl)-2-isopropyl-4-phenyl-1H-pyrrole-3-carboxylic acid (2-diethylaminoethyl)amide] | 4.69 | 3.53 | 3380 | 3.67 | 14.5
CN(C)CCNC(=O)c1[nH]c(/C=C2\C(=O)Nc3ccc(Br)cc32)c2c1CCCC2 [Example 89, 3-(5-Bromo-2-oxo-1,2-dihydro-indol-3-ylidenemethyl)-4,5,6,7-tetrahydro-2H-isoindole-1-carboxylic acid (2-dimethylamino-ethyl)-amide] | 47.6 | 16 | 7840 | 8.53 | 9.67
CCN(CC)CCNC(=O)c1c(C)[nH]c(/C=C2\C(=O)Nc3ccc(-c4ccccc4)cc32)c1C [Example 56, 2,4-Dimethyl-5-(2-oxo-5-phenyl-1,2-dihydroindol-3-ylidenemethyl)-1H-pyrrole-3-carboxylic acid (2-diethylaminoethyl)amide] | 3.19 | 7.11 | 2320 | > 100 | 10
CCN(CC)CCN(C)C(=O)c1ccc(/C=C2\C(=O)Nc3ccc(Br)cc32)[nH]1 [Example 10, 5-(5-Bromo-2-oxo-1,2-dihydroindol-3-ylidenemethyl)-1H-pyrrole-2-carboxylic acid (2-diethylaminoethyl)methylamide] | > 100 | 8.06 | 5720 | 94 | 15.9
CCN(CC)CCN(C)C(=O)c1ccc(/C=C2\C(=O)Nc3cc(-c4ccccc4)ccc32)[nH]1 [Example 11, 5-(2-Oxo-6-phenyl-1,2-dihydroindol-3-ylidenemethyl)-1H-pyrrole-2-carboxylic acid (2-diethylaminoethyl)methylamide] | > 100 | > 100 | 9770 | > 100 | > 100
CCOC(=O)c1c(C)[nH]c(/C=C2\C(=O)Nc3ccc(Br)cc32)c1-c1ccccc1 [Example 46, 5-(5-Bromo-2-oxo-1,2-dihydroindol-3-ylidenemethyl)-2-methyl-4-phenyl-1H-pyrrole-3-carboxylic acid ethyl ester] | 6.18 | > 100 | 30600 | > 100 | > 100
CCN(CC)CCCNC(=O)c1cc(C)c(/C=C2\C(=O)Nc3ccc(Br)cc32)[nH]1 [Example 7, 5-(5-Bromo-2-oxo-1,2-dihydroindol-3-ylidenemethyl)-4-methyl-1H-pyrrole-2-carboxylic acid (3-diethylaminopropyl)amide] | > 100 | 4.24 | 7740 | 5.07 | 9.8
CCN(CC)CCCNC(=O)c1c(C(C)C)[nH]c(/C=C2\C(=O)Nc3ccc(Br)cc32)c1-c1ccccc1 [Example 37, 5-(5-Bromo-2-oxo-1,2-dihydroindol-3-ylidenemethyl)-2-isopropyl-4-phenyl-1H-pyrrole-3-carboxylic acid (3-diethylaminopropyl)amide] | 3.06 | 1.4 | 220 | 10.8 | 9.84
CCN(CC)CCCNC(=O)c1c(C)[nH]c(/C=C2\C(=O)Nc3ccc(-c4ccccc4)cc32)c1C [Example 67, 2,4-Dimethyl-5-(2-oxo-5-phenyl-1,2-dihydroindol-3-ylidenemethyl)-1H-pyrrole-3-carboxylic acid (3-diethylaminopropyl)amide] | 24.8 | 2.56 | 390 | 31.4 | 19.8
CC(C)c1[nH]c(/C=C2\C(=O)Nc3ccc(Br)cc32)c(C(C)C)c1C(=O)NCCCN1CCCC1 [Example 73, 5-(5-Bromo-2-oxo-1,2-dihydroindol-3-ylidenemethyl)-2,4-diisopropyl-1H-pyrrole-3-carboxylic acid (3-pyrrolidin-1-ylpropyl)amide] | 14.1 | 8.59 | 5950 | > 100 | 39.5

Continued, values first:

IC50 (PDGFR-β) [µM] | IC50 (HER-2 kinase) [µM] | IC50 (GST-Flk1) [nM] | IC50 (EGFR [1]) [µM] | IC50 (EGFR [2]) [µM] | SMILES
< 0.78 | > 100 | 550 | 30.5 | > 100 | Cc1[nH]c(/C=C2\C(=O)Nc3cc(-c4cccnc4)ccc32)c(C)c1C(=O)NCCN1CCCC1 [Example 64, 2,4-Dimethyl-5-(2-oxo-6-pyridin-3-yl-1,2-dihydroindol-3-ylidenemethyl)-1H-pyrrole-3-carboxylic acid (2-pyrrolidin-1-yl-ethyl)amide]
0.03 | 34.1 | 1160 | – | 23.5 | CCN(CC)CCCNC(=O)c1c(C)[nH]c(/C=C2\C(=O)Nc3cc(-c4ccccc4)ccc32)c1C [Example 68, 2,4-Dimethyl-5-(2-oxo-6-phenyl-1,2-dihydroindol-3-ylidenemethyl)-1H-pyrrole-3-carboxylic acid (3-diethylaminopropyl)amide]
3.06 | 2.16 | 4170 | 6.04 | 8.97 | CC(C)c1[nH]c(/C=C2\C(=O)Nc3ccc(Br)cc32)c(-c2ccccc2)c1C(=O)NCCCN1CCCC1 [Example 38, 5-(5-Bromo-2-oxo-1,2-dihydroindol-3-ylidenemethyl)-2-isopropyl-4-phenyl-1H-pyrrole-3-carboxylic acid (3-pyrrolidin-1-ylpropyl)amide]
0.12 | 20.4 | 100 | 12 | 74.6 | Cc1[nH]c(/C=C2\C(=O)Nc3ccc(Br)cc32)c(-c2ccccc2)c1C(=O)NCCN1CCCC1 [Example 42, 5-(5-Bromo-2-oxo-1,2-dihydroindol-3-ylidenemethyl)-2-methyl-4-phenyl-1H-pyrrole-3-carboxylic acid (2-pyrrolidin-1-yl-ethyl)amide]
< 0.05 | 16 | 370 | > 100 | 74.4 | Cc1[nH]c(/C=C2\C(=O)Nc3cc(-c4cccnc4)ccc32)c(C)c1C(=O)NCCCN(C)C [Example 65, 2,4-Dimethyl-5-(2-oxo-6-pyridin-3-yl-1,2-dihydroindol-3-ylidenemethyl)-1H-pyrrole-3-carboxylic acid (3-dimethylamino-propyl)amide]
0.53 | 77.8 | 270 | 6.03 | 36 | COc1cccc(-c2ccc3c(c2)NC(=O)/C3=C\c2[nH]c(C)c(C(=O)NCCN(C)C)c2C)c1 [Example 55, 5-[6-(3-Methoxy-phenyl)-2-oxo-1,2-dihydroindol-3-ylidenemethyl]-2,4-dimethyl-1H-pyrrole-3-carboxylic acid (2-dimethylamino-ethyl)amide]
0.02 | 6.99 | < 50 | 20.7 | 67.5 | Cc1[nH]c(/C=C2\C(=O)Nc3ccc(Br)cc32)c(-c2ccccc2)c1C(=O)NCCN(C)C [Example 44, 5-(5-Bromo-2-oxo-1,2-dihydroindol-3-ylidenemethyl)-2-methyl-4-phenyl-1H-pyrrole-3-carboxylic acid (2-dimethylamino-ethyl)amide]
